Reference: US7176281B2 (priority 2003, dated 2007)
Where a SMILES comes first, the peptide text is derived from it.

Assays:
[1] = test system: mammalian (human and rat) type IIA sPLA2; type: binding
serum sPLA2 = experiment: Serum sPLA2 levels in Tg197 mice, E. coli membrane assay; type: in vivo, mouse; settings: 3–4 weeks post-treatment
Method: Serum of transgenic (Tg197) mice and non-transgenic wild type controls were measured for sPLA2 using an Escherichia coli (E. coli) membrane assay as described previously [Eur J Biochem 2002, 269:719–727]. In brief, [^3H] arachidonate-labeled E. coli membrane suspension (5.8 μCi/μmol, Perkin Elmer, USA) was used as substrate, and 25 mM CaCl2-100 mM Tris-HCl (pH 7.5) as assay buffer. The reaction mixture containing substrate (20 μl), and either purified human synovial sPLA2 standard (1–80 ng/ml, Cayman, USA) or serum (10 μl) in a final volume of 250 μl in assay buffer was incubated at 37° C. for 1 h, and the reaction terminated with 750 μl of chilled PBS containing 1% BSA. 500 μl aliquots of the supernatant were then taken to measure the amount of [^3H] arachidonate released from the E. coli membrane using liquid scintillation counting (Beckman LS 6500 Scintillation Counter). The amount of sPLA2 present in the serum was calculated from the standard curve, and is expressed as ng/ml±SEM.
FIG. 12 depicts time course of serum sPLA2 levels. Serum sPLA2 levels were measured with an E. coli membrane assay in blood samples collected from untreated, P-NT.I- and scrambled P-NT.II-treated Tg197 mice at weekly intervals. Values are the mean±SD (n=4/group). […]

[2] = test system: murine macrophage cell line J774; experiment: LPS- or TNF-induced PGE2 production in J774 macrophages; type: cell-based, mouse; settings: J774 cells, 20 h
Method: The murine macrophage cell line J774 (ATCC, USA) was cultured at 37° C. in humidified 5% CO2/95% air in Dulbecco's Modified Eagle's Medium (DMEM) containing 10% foetal bovine serum, 2 mM glutamine, 20 mM Hepes, 100 Ul/ml penicillin and 100 μg/ml streptomycin. After growing to confluence, the cells were dislodged by scrapping, plated in 12 culture wells at a density of 5×10^5 cells/ml per well, and allowed to adhere for 2 h. […] Culture medium supernatants were collected after centrifugation (10,000 g, 4° C., 15 min) and stored at −80° C. prior to measurement of PGE2, which was done according to the manufacturer's instructions (EIA kit-monoclonal, Cayman Chemical, USA).
FIGS. 13A and 13B show modulation of LPS- and TNF-stimulated PGE2 release. […] Supernatants were collected, and PGE2 release in the medium was determined by ELISA. Results are shown as the mean±SEM of 5 experiments performed in duplicate. **P<0.01 between inhibitor-treated and untreated cultures.

[3] = target: T1, Group IIA purified human synovial sPLA2 (Homo sapiens, UniProt P14555); experiment: In vitro inhibition of purified human synovial sPLA2, 3H-labelled E. coli membranes; type: biochemical; settings: fixed peptide concentration 5 μM
T1 construct: purchased Cayman, USA
T1 sequence (P14555 21-144): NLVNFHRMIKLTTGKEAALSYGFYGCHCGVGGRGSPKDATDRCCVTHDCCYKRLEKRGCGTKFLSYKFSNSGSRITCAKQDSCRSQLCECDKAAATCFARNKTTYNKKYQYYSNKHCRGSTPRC

sPLA2 = experiment: Inhibition of sPLA2 activity at fixed concentrations; type: biochemical
[4] = test system: organotypic hippocampal slice cultures; experiment: Kainate-induced injury in organotypic hippocampal slice cultures, GluR1 immunoreactivity

## CC[C@H](C)[C@H](NC(=O)[C@H](Cc1ccc(O)cc1)NC(=O)[C@@H](NC(=O)CNC(=O)[C@H](CC(=O)O)NC(=O)[C@H](Cc1c[nH]c2ccccc12)NC(=O)[C@@H](NC(=O)[C@H](Cc1c[nH]cn1)NC(=O)[C@@H](NC(=O)[C@H](CC(=O)O)NC(=O)[C@@H](NC(=O)[C@H](CCCNC(=N)N)NC(=O)CNC(=O)[C@@H](N)CC(C)C)C(C)C)[C@@H](C)CC)C(C)C)C(C)C)C(=O)N[C@@H](CCCNC(=N)N)C(=O)NCC(=O)N[C@@H](CCCNC(=N)N)C(=O)O [P-NT.II] (H-LGRVDIHVWDGVYIRGR-OH; N-terminus and C-terminus assumed)
[1]
  competition with labeled P-NT.II for binding to type IIA sPLA2: inhibited
Serum sPLA2
  circulating sPLA2 compared with untreated mice: significantly suppressed
[2]
  LPS- or TNF-induced PGE2 production: dose-dependently inhibit
[3]
  inhibition at 5 µM: 55.6%
sPLA2; 6 μM
  inhibition of sPLA2 activity: 80%
sPLA2; 10 μM
  inhibition of sPLA2 activity: 90%
[4]; 10 μM added before kainate
  GluR1 immunoreactivity of pyramidal neurons after kainate: significantly prevented the decrease in GluR1 immunoreactivity
[4]; 6–10 μM
  protection against kainite lesioned hippocampal slices: almost complete protection
